The record followed here is ChEMBL document CHEMBL1909046, “DrugMatrix in vitro pharmacology data”.

For one data set, the target named is Cytochrome P450 2C19 (Homo sapiens, UniProt P33261). Conditions: bti-tn-5b1-4. Note: in other assays of this panel Not Active means under 50% inhibition at 10 µM.
For data set [1], the target named is Aldo-keto reductase family 1 member B1 (Rattus norvegicus, UniProt P07943). Nature of the data set: biochemical. Type of data set: tissue-based, Lens of camera-type eye.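 Note: inhibition of aldose reductase enzyme activity, measured with DL-glyceraldehyde as the substrate; in other assays of this panel Not Active means under 50% inhibition at 10 µM.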
A short description of data set [2]: DRUGMATRIX: Glutamate, Kainate radioligand binding (ligand: [3H] Kainic acid). Type of data set: cell membranes, Rattus norvegicus, Wistar, Brain, Membrane. The following applies: Not Active = under 50% inhibition at 10 µM.
In data set [3] the target is Voltage-gated inwardly rectifying potassium channel KCNH2 (Homo sapiens, UniProt Q12809). Conditions: hek293. Note: in other assays of this panel Not Active means under 50% inhibition at 10 µM.
Chain of Voltage-gated inwardly rectifying potassium channel KCNH2 (Q12809 whole entry): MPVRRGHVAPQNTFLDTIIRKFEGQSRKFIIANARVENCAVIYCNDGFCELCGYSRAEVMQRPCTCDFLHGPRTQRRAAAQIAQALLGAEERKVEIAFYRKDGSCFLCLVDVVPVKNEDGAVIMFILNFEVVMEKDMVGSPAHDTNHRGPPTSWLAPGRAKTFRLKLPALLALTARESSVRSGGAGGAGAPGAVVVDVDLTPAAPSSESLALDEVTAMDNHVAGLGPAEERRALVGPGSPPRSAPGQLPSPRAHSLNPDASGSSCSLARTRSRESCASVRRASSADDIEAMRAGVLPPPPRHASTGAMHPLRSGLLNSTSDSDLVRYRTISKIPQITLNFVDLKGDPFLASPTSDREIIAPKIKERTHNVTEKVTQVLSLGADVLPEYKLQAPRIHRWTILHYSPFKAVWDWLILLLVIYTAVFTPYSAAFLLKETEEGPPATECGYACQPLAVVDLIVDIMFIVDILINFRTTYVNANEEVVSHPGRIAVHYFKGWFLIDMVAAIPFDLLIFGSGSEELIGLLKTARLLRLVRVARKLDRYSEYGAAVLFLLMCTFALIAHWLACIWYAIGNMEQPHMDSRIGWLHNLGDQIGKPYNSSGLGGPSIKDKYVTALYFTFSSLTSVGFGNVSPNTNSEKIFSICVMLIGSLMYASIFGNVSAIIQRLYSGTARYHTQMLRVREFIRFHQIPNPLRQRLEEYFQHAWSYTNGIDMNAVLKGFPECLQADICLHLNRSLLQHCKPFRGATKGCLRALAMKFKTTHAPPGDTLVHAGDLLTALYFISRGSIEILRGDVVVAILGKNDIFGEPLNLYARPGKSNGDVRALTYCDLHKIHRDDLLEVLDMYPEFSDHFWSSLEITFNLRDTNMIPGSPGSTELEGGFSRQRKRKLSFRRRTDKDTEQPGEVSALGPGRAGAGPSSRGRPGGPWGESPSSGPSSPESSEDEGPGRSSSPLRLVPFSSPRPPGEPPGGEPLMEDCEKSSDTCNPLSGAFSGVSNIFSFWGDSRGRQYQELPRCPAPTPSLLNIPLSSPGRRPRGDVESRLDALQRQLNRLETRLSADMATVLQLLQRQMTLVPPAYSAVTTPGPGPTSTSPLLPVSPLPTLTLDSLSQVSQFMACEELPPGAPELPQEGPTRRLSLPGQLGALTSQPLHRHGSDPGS
Data set [4] can be described thus: DRUGMATRIX: Leukotriene, BLT (LTB4) radioligand binding (ligand: [3H]LTB4). Type of data set: cell membranes, Membrane. The following applies: u-937; Not Active = under 50% inhibition at 10 µM.
In data set [5] the target is T1, Polyunsaturated fatty acid lipoxygenase ALOX15 (Oryctolagus cuniculus, UniProt P12530).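 Note: inhibition of 15-lipoxygenase enzyme activity measured with linoleic acid as the substrate; in other assays of this panel Not Active means under 50% inhibition at 10 µM.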
T1 sequence (P12530 whole entry): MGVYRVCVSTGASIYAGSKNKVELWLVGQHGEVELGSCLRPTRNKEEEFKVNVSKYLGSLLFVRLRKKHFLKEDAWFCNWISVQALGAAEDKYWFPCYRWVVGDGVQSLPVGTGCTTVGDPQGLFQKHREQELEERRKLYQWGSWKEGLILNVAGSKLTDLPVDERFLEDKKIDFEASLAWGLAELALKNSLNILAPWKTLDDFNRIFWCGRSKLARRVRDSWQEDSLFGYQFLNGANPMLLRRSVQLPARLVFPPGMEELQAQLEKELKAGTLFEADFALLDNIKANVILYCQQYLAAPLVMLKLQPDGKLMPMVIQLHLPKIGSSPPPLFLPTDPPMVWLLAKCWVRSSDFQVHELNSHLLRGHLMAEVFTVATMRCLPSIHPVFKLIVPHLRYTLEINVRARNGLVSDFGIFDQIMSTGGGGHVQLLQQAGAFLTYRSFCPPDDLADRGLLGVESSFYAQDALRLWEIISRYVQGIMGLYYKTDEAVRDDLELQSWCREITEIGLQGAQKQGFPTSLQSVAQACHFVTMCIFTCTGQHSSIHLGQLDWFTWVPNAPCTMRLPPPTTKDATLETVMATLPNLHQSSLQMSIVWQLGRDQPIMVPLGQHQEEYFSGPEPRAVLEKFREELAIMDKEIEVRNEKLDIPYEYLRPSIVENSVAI
Nature of the data set: biochemical. Type of data set: tissue-based, Reticulocytes. The following applies: reticulocytes.

Data set [6] addresses T2, C-X-C chemokine receptor type 1 (Homo sapiens, UniProt P25024).
T2 sequence (P25024 whole entry): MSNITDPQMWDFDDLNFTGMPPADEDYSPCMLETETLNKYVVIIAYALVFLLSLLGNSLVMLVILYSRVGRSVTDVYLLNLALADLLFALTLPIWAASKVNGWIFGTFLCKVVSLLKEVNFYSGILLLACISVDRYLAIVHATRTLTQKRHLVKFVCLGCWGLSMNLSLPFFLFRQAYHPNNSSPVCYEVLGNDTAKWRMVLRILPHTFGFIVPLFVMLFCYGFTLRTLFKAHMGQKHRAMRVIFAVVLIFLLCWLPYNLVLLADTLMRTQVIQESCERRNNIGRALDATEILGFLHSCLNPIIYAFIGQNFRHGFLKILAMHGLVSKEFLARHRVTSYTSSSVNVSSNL

Data set [7] concerns the target T3, Cholecystokinin receptor type A (Homo sapiens, UniProt P32238). Note: in other assays of this panel Not Active means under 50% inhibition at 10 µM.
T3 sequence (P32238 whole entry): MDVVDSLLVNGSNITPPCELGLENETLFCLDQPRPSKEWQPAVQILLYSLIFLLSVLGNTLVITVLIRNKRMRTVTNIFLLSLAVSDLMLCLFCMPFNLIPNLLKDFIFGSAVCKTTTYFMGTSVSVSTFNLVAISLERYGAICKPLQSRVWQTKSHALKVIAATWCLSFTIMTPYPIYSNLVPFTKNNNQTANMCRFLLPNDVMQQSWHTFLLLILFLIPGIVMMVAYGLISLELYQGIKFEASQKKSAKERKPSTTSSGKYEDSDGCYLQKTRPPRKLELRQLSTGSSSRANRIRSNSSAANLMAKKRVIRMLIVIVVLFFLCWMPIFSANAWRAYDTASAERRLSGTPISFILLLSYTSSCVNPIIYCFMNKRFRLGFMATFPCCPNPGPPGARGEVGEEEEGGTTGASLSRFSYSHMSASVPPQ
Type of data set: cell membranes, Membrane. The following applies: 1321-n1.

Chain of Cytochrome P450 2C19 (P33261 whole entry): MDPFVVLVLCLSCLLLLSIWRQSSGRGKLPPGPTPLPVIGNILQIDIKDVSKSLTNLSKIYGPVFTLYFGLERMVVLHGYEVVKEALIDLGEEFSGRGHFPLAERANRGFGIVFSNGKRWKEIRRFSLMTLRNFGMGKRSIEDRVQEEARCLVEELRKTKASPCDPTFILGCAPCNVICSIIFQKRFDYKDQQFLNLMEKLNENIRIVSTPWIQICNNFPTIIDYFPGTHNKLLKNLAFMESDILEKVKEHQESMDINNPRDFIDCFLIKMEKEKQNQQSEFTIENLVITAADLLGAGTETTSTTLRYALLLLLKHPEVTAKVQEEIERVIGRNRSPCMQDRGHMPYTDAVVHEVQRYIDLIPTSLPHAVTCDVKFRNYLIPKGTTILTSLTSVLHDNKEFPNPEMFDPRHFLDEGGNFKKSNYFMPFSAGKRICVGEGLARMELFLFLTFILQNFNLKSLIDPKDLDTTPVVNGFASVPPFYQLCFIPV

For orientation: IC50 means the concentration that gives 50% inhibition. In the case of `CC1(C)O[C@@H]2C[C@H]3[C@@H]4CCC5=CC(=O)C=C[C@]5(C)[C@@]4(F)[C@@H](O)C[C@]3(C)[C@]2(C(=O)CO)O1` [TRIAMCINOLONE ACETONIDE], the IC50 result (at Cytochrome P450 2C19; in data set [1]; in data set [2]; in data set [3]; in data set [4]; in data set [5]) was “Not Active” in each case. The IC50 entry in data set [6] and in data set [7] was “Not Active” each time. Further, the Ki entry (on Cytochrome P450 2C19; in data set [2]; in data set [3]; in data set [4]) was “Not Active” each time.

Consider `NS(=O)(=O)c1cc2c(cc1Cl)NC(C(Cl)Cl)NS2(=O)=O` (stereo not given) [TRICHLORMETHIAZIDE], for which the IC50 entry (on Cytochrome P450 2C19; in data set [1]; in data set [2]; in data set [3]; in data set [4]; in data set [5]) was “Not Active” each time. Also, the IC50 entry in data set [6] and in data set [7] was “Not Active” throughout. In addition, the Ki result (at Cytochrome P450 2C19; in data set [2]; in data set [3]; in data set [4]) was “Not Active” in each case.

Take `Cc1c(C)c2c(c(C)c1O)CCC(C)(COc1ccc(CC3SC(=O)NC3=O)cc1)O2` (stereo not given) [TROGLITAZONE]: the IC50 result against Cytochrome P450 2C19 is “Not Active”; in data set [1] (read-out: IC50) it was 2040 nM; in data set [2], “Not Active”; in data set [3], “Not Active”; in data set [4], “Not Active”; in data set [5], “Not Active”. Also, the IC50 entry in data set [6] and in data set [7] was “Not Active” each time. Moreover, the Ki entry (at Cytochrome P450 2C19; in data set [2]; in data set [3]; in data set [4]) was “Not Active” in each case.

For the compound `N[C@@H]1[C@H]2CN(c3nc4c(cc3F)c(=O)c(C(=O)O)cn4-c3ccc(F)cc3F)C[C@@H]12` [TROVAFLOXACIN], the half-inhibitory concentration (IC50) entry (against Cytochrome P450 2C19; in data set [1]; in data set [2]; in data set [3]; in data set [4]; in data set [5]) was “Not Active” in each case. The IC50 entry in data set [6] and in data set [7] was “Not Active” throughout. In addition, the Ki entry (on Cytochrome P450 2C19; in data set [2]; in data set [3]; in data set [4]) was “Not Active” in each case.

In the case of `N#CC(C#N)=Cc1ccc(O)c(O)c1` [TYRPHOSTIN 23], the IC50 entry against Cytochrome P450 2C19 is “Not Active”; in data set [1] (read-out: IC50) it was 202 nM; in data set [2], “Not Active”; in data set [3], “Not Active”; in data set [4], “Not Active”; in data set [5] it was “Not Active”. For the same compound, the IC50 result in data set [6] and in data set [7] was “Not Active” each time. Also, the Ki entry (on Cytochrome P450 2C19; in data set [2]; in data set [3]; in data set [4]) was “Not Active” throughout.

For `CC[C@]1(O)C[C@H]2CN(CCc3c([nH]c4ccccc34)[C@@](C(=O)OC)(c3cc4c(cc3OC)N(C=O)[C@H]3[C@@](O)(C(=O)OC)[C@H](OC(C)=O)[C@]5(CC)C=CCN6CC[C@]43[C@@H]65)C2)C1` [VINCRISTINE], the IC50 result (at Cytochrome P450 2C19; in data set [1]; in data set [2]; in data set [3]; in data set [4]; in data set [5]) was “Not Active” in each case. Moreover, the IC50 entry in data set [6] and in data set [7] was “Not Active” throughout. The Ki result (on Cytochrome P450 2C19; in data set [2]; in data set [3]; in data set [4]) was “Not Active” each time.

For `CCCOc1ccccc1-c1nc2nn[nH]c2c(=O)[nH]1` [ZAPRINAST], the IC50 entry (at Cytochrome P450 2C19; in data set [1]; in data set [2]; in data set [3]; in data set [4]; in data set [5]) was “Not Active” throughout. In addition, the concentration for half-maximal inhibition (IC50) result in data set [6] and in data set [7] was “Not Active” each time. Besides, the Ki entry (on Cytochrome P450 2C19; in data set [2]; in data set [3]; in data set [4]) was “Not Active” in each case.

In the case of SODIUM NITROPRUSSIDE, the IC50 entry (against Cytochrome P450 2C19; in data set [1]; in data set [2]; in data set [3]; in data set [4]; in data set [5]) was “Not Active” throughout. Besides, the IC50 entry in data set [6] and in data set [7] was “Not Active” in each case. The Ki result (on Cytochrome P450 2C19; in data set [1]; in data set [2]; in data set [3]; in data set [4]; in data set [5]) was “Not Active” in each case. In addition, the Ki entry in data set [6] and in data set [7] was “Not Active” each time.
